Tests used:
[1] = tested on: canker sores (aphthous ulcers); details: topical application, reported in literature; cited from earlier work
[2] = tested on: canker sores (aphthous ulcers); test: Inventor's trials of oral patches with licorice root extract or amoxicillin on canker sores; type: in vivo, human
Method: For medication to be placed in the patch, any of the above-mentioned antimicrobials, or similar antimicrobials, may be used. […] A preferred quantity of licorice extract in each patch that lasts 1 to 6 hours is 20 to 95 milligrams.
In the testing, conventional amoxicillin powder for preparation of oral suspension was used, which includes sugars and other excipients. The sugars act as a binder to the sponge of the oral patch. The oral suspension is massaged into the patch and dried. Preferably, the amoxicillin powder is mixed into a stronger than normal liquid form before being added to the patch.

| Compound | healing of canker sores [1] | also measured |
| --- | --- | --- |
| N=C(NCCCCCCNC(=N)NC(=N)Nc1ccc(Cl)cc1)NC(=N)Nc1ccc(Cl)cc1.O=C(O)[C@H](O)[C@@H](O)[C@H](O)[C@H](O)CO.O=C(O)[C@H](O)[C@@H](O)[C@H](O)[C@H](O)CO [chlorhexidine gluconate] | reported to speed healing of canker sores | – |
| OO [hydrogen peroxide] | reported to speed healing of canker sores | – |
| NC(N)=O.OO [carbamide peroxide] | reported to speed healing of canker sores | – |
| CN(C)CCOC(c1ccccc1)c1ccccc1 [diphenhydramine] | reported to speed healing of canker sores | – |
| penicillin | shown to speed healing of canker sores | – |
| CC1(C)S[C@@H]2[C@H](NC(=O)[C@H](N)c3ccc(O)cc3)C(=O)N2[C@H]1C(=O)O [amoxicillin] | shown effective | effectiveness on canker sores ([2]; amoxicillin powder for oral suspension on conventional patches): works quite well; typical duration of each canker sore ([2]; in a patch applied for half of the hours, day and night, typically 10-14 days without treatment): ~2 days; results of treatment of canker sores ([2]; patch keeping medication on or near the sore about half of the hours in a day over 2 days): nearly always effective; results of treatment of canker sores ([2]; troche, gel, paste or liquid applied six times per day for 2 days): nearly always ineffective |

Source: patent US20040156930A1, “Treating mouth ulcers with patches to speed healing and relieve pain” (priority 2002, published 2004)
